According to patent US10988462B2, “Pyrazole compounds substituted with heteroaryl and pharmaceutical use thereof” (Japan Tobacco Inc., priority 2018, dated 2021):

Assays:
[1] = test system: Escherichia coli WP2uvrA; assay: Ames test (reverse mutation test), pre-incubation method, strain WP2uvrA; assay type: cell-based; details: positive control; S9 mix −; dose 0.01 μg/plate
Text: Ames Test (Reverse Mutation Test)
Two plates per treatment were used.

[2] = molecular target: human SGLT1 (Homo sapiens (Human), UniProt P13866); assay: SGLT1 inhibitory activity: intracellular uptake of 14C-AMG in human SGLT1-stably-expressing CHO-K1 cell line; assay type: cell-based; details: human SGLT1-stably-expressing CHO-K1 cells, 14C-AMG uptake; read-out: hSGLT1 IC50
Chain of human SGLT1 (P13866 whole entry): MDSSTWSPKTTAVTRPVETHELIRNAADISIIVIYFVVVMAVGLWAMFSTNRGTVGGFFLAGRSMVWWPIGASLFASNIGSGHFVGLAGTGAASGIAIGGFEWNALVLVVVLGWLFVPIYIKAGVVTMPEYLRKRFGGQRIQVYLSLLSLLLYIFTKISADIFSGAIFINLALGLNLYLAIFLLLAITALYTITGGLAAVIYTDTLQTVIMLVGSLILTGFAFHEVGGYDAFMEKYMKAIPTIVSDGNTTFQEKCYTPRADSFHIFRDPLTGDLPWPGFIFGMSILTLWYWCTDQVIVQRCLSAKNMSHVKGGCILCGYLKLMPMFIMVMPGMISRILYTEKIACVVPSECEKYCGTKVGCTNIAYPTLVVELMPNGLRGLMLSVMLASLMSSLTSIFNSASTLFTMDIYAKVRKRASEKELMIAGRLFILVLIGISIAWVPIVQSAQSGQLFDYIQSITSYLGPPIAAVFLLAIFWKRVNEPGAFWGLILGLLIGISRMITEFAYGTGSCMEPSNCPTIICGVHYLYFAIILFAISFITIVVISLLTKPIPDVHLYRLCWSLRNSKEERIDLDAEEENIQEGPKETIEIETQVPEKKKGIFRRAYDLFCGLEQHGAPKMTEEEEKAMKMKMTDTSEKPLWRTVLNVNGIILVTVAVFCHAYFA
Protocol: SGLT1 inhibitory activities of test compounds (IC50 values) were calculated based on the amount of intracellular uptake of labelled α-methyl-D-glucopyranoside (^14C-AMG) transported by SGLT1.
1) Formation of Human SGLT1-Expressing Plasmid
A DNA fragment containing human SGLT1 was amplified by PCR (Polymerase Chain Reaction) using pCMV6-hSGLT1 (OriGene) as a template. In the human SGLT1, NheI recognition and cleavage sequence was added to the upstream of Kozac consensus sequence derived from a vector, and a stop codon, TAG, and SalI recognition and cleavage sequence were added to the immediate downstream of the protein-translating region of human SGLT1. The purified DNA fragment was cleaved by restriction enzymes NheI and SalI, followed by ligation with pcDNA3.1 (+) which was cleaved by NheI and XhoI, thereby forming human SGLT1-expressing plasmid, pcDNA-hSGLT1. The nucleic acid sequence of human SGLT1 inserted into a vector was completely identical to the protein-translated region of human SGLT1 sequence (Accession number NM_000343) registered in GenBank, and the sequence of the portion connected to the vector was as expected.
2) Establishment of Human SGLT1-Stably-Expressing Cell Lines
Human SGLT-expressing plasmid, pcDNA-hSGLT1, was transfected into each CHO-K1 cell by Lipofectamine 2000 (Invitrogen) and cultured in the presence of G418 (Nacalai Tesque) to select drug-resistant cell lines. A cell line having the highest ratio (S/B ratio) of the amount of intracellular uptake of ^14C-AMG per cell to the amount of intracellular uptake of ^14C-AMG after treatment with a SGLT inhibitor, phlorizin, was selected as a human SGLT1-stably-expressing cell line from the drug-resistant cell lines.
3) Assessment of SGLT1 Inhibitory Activity
Human SGLT1-stably-expressing cell lines were seeded at 5×10^4 cells/well on BioCoat™ Poly-D-Lysine 96 well plate with Lid (Becton, Dickinson and Company) and cultured at 37° C. under 5% CO2 overnight. The medium was replaced with 100 μL/well of Na(−) buffer (140 mM choline chloride, 2 mM KCl, 1 mM MgCl2, 1 mM CaCl2, 10 mM HEPES, 5 mM Tris, pH 7.4), and then the mixture was let stand at 37° C. under 5% CO2 for 20 minutes. After removal of Na(−) buffer, thereto was added 40 μL/well of a test compound solution prepared with Na(+) buffer (140 mM NaCl, 2 mM KCl, 1 mM MgCl2, 1 mM CaCl2, 10 mM HEPES, 5 mM Tris, pH 7.4) comprising BSA. Then, thereto was added 40 μL/well of Na(+) buffer comprising 8 kBq of ^14C-AMG and 2 mM AMG, and the mixture was mixed well. For a blank, 40 μL/well of Na(−) buffer comprising BSA was added, and in addition, 40 μL/well of Na(−) buffer comprising 8 kBq of ^14C-AMG and 2 mM AMG was added, and the mixture was mixed well. After incubation by being let stand for 1 hour at 37° C. under 5% CO2, cells were washed twice with 100 μL/well of ice-cooled wash buffer (100 mM AMG, 140 mM choline chloride, 2 mM KCl, 1 mM MgCl2, 1 mM CaCl2, 10 mM HEPES, 5 mM Tris, pH 7.4) to terminate the reaction. A cell lysate was prepared by addition of 50 μL/well of 0.2N aqueous NaOH solution. In the assessment for the uptake ability of ^14C-AMG, the total amount of the cell lysate was transferred to OptiPlate 96 (Perkin-Elmer) with 100 μL/well of MicroScint-40 (Perkin-Elmer) dispensed and ^14C of CPM was measured with TOPCOUNT NXT (Perkin-Elmer).
Data was calculated by deducting the average value of CPM for blank well from the average value of CPM for each well treated. An inhibition rate for each test compound in each concentration was calculated from the following equation: [(A−B)/A]×100 wherein A is data for a solvent control and B is data for treatment with each test compound.

SMILES | Number of revertant colonies WP2uvrA [1] | IC50 [2] [nM]
NC(=O)C(=Cc1ccc([N+](=O)[O-])o1)c1ccco1 [AF-2, 2-(2-Furyl)-3-(5-nitro-2-furyl)acrylamide, reference compound] | 154 | 
C[C@H]1C(=O)NC[C@@H]1C(=O)Nc1cc(-c2cc(F)cc(OC(C)(C)C(F)(F)F)c2)n(-c2cnc(C(F)(F)F)nc2)n1 [Example 1, (3R,4R)—N-(5-(3-fluoro-5-((1,1,1-trifluoro-2-methylpropan-2-yl)oxy)phenyl)-1-(2-(trifluoromethyl)pyrimidin-5-yl)-1H-pyrazol-3-yl)-4-methyl-5-oxopyrrolidine-3-carboxamide] |  | 1.9
C[C@H]1C(=O)NC[C@@H]1C(=O)Nc1cc(-c2cc(F)cc(OC(F)(F)F)c2)n(-c2cncc(F)c2)n1 [Example 2, (3R,4R)—N-(5-(3-fluoro-5-(trifluoromethoxy)phenyl)-1-(5-fluoropyridin-3-yl)-1H-pyrazol-3-yl)-4-methyl-5-oxopyrrolidine-3-carboxamide] |  | 14
C[C@H]1C(=O)NC[C@@H]1C(=O)Nc1cc(-c2cc(F)cc(OC(F)(F)F)c2)n(-c2cncc(C(F)(F)F)c2)n1 [Example 3] |  | 8.6
C[C@H]1C(=O)NC[C@@H]1C(=O)Nc1cc(-c2cc(F)cc(OC(C)(C)C)c2)n(-c2cnccn2)n1 [Example 4] |  | 23
C[C@H]1C(=O)NC[C@@H]1C(=O)Nc1cc(-c2cccc(OC(F)(F)F)c2)n(-c2cncc(F)c2)n1 [Example 5] |  | 22
C[C@H]1C(=O)NC[C@@H]1C(=O)Nc1cc(-c2cccc(OC(F)(F)F)c2)n(-c2cncc(Cl)c2)n1 [Example 6] |  | 9
C[C@H]1C(=O)NC[C@@H]1C(=O)Nc1cc(-c2cccc(OC(F)(F)F)c2)n(-c2cncc(C(F)(F)F)c2)n1 [Example 7] |  | 17
C[C@H]1C(=O)NC[C@@H]1C(=O)Nc1cc(-c2cc(F)cc(OC(C)(C)C(F)(F)F)c2)n(-c2ccnc(C(F)(F)F)n2)n1 [Example 9] |  | 73
C[C@H]1C(=O)NC[C@@H]1C(=O)Nc1cc(-c2cc(F)cc(OC(C)(C)C(F)(F)F)c2)n(-c2cncc(C(F)(F)F)c2)n1 [Example 10] |  | 1.2
C[C@H]1C(=O)NC[C@@H]1C(=O)Nc1cc(-c2cc(F)cc(OC(C)(C)C(F)(F)F)c2)n(-c2cccnc2C#N)n1 [Example 11] |  | 8.4
C[C@H]1C(=O)NC[C@@H]1C(=O)Nc1cc(-c2cc(F)cc(OC(C)(C)C(F)(F)F)c2)n(-c2cccnc2C(F)(F)F)n1 [Example 12] |  | 4.3
C[C@H]1C(=O)NC[C@@H]1C(=O)Nc1cc(-c2cc(F)cc(OC(C)(C)C(F)(F)F)c2)n(-c2cnccc2C(F)(F)F)n1 [Example 13] |  | 2.9
C[C@H]1C(=O)NC[C@@H]1C(=O)Nc1cc(-c2cc(F)cc(OC(C)(C)C(F)(F)F)c2)n(-c2cnccc2C#N)n1 [Example 14] |  | 3.7
C[C@H]1C(=O)NC[C@@H]1C(=O)Nc1cc(-c2cc(F)cc(OC(C)(C)C(F)(F)F)c2)n(-c2cnc(C(F)(F)F)cn2)n1 [Example 15] |  | 6.1
C[C@H]1C(=O)NC[C@@H]1C(=O)Nc1cc(-c2cc(F)cc(OC(C)(C)C(F)(F)F)c2)n(-c2nccc(C(F)(F)F)n2)n1 [Example 16] |  | 83
C[C@H]1C(=O)NC[C@@H]1C(=O)Nc1cc(-c2cc(F)cc(OC(C)(C)C(F)(F)F)c2)n(-c2cncc(Cl)c2)n1 [Example 17] |  | 1.3
C[C@H]1C(=O)NC[C@@H]1C(=O)Nc1cc(-c2cc(F)cc(OC(C)(C)C(F)(F)F)c2)n(-c2cncc(C(F)(F)F)n2)n1 [Example 18] |  | 29
C[C@H]1C(=O)NC[C@@H]1C(=O)Nc1cc(-c2cc(F)cc(OC(C)(C)C(F)(F)F)c2)n(-c2nccnc2C(F)(F)F)n1 [Example 19] |  | 29

SMILES | Number of revertant colonies WP2uvrA [1] | IC50 [2] [nM]
C[C@H]1C(=O)NC[C@@H]1C(=O)Nc1cc(-c2cc(F)cc(OC(C)(C)C(F)(F)F)c2)n(-c2ccc(C(F)(F)F)nc2)n1 [Example 20] |  | 1.2
C[C@H]1C(=O)NC[C@@H]1C(=O)Nc1cc(-c2cc(F)cc(OC(C)(C)C(F)(F)F)c2)n(-c2cncc(F)c2)n1 [Example 21] |  | 1.2
C[C@H]1C(=O)NC[C@@H]1C(=O)Nc1cc(-c2cc(F)cc(OC(C)(C)C(F)(F)F)c2)n(-c2cncnc2)n1 [Example 22] |  | 3.4
C[C@H]1C(=O)NC[C@@H]1C(=O)Nc1cc(-c2cc(F)cc(OC(C)(C)C(F)(F)F)c2)n(-c2cnccn2)n1 [Example 23] |  | 11
C[C@H]1C(=O)NC[C@@H]1C(=O)Nc1cc(-c2cc(F)cc(OC(C)(C)C(F)(F)F)c2)n(-c2ccc(C(F)(F)F)cn2)n1 [Example 24] |  | 5.3
C[C@H]1C(=O)NC[C@@H]1C(=O)Nc1cc(-c2cc(F)cc(OCC(F)(F)F)c2)n(-c2cnc(C(F)(F)F)nc2)n1 [Example 25] |  | 5.7
C[C@H]1C(=O)NC[C@@H]1C(=O)Nc1cc(-c2cccc(OC(F)(F)F)c2)n(-c2cnc(C(F)(F)F)nc2)n1 [Example 26] |  | 47
C[C@H]1C(=O)NC[C@@H]1C(=O)Nc1cc(-c2cc(F)cc(OC(F)(F)F)c2)n(-c2cnc(C(F)(F)F)nc2)n1 [Example 27] |  | 30
C[C@H]1C(=O)NC[C@@H]1C(=O)Nc1cc(-c2cc(F)cc(OC(F)(F)F)c2)n(-c2ccc(C(F)(F)F)nc2)n1 [Example 28] |  | 7.2
C[C@H]1C(=O)NC[C@@H]1C(=O)Nc1cc(-c2cc(F)cc(OC(F)(F)F)c2)n(-c2cncnc2)n1 [Example 29] |  | 52
C[C@H]1C(=O)NC[C@@H]1C(=O)Nc1cc(-c2cc(F)cc(OC(F)(F)F)c2)n(-c2cncc(Cl)c2)n1 [Example 30] |  | 2.7
C[C@H]1C(=O)NC[C@@H]1C(=O)Nc1cc(-c2cc(F)cc(OCC(F)(F)F)c2)n(-c2cncc(C(F)(F)F)c2)n1 [Example 31] |  | 5.7
C[C@H]1C(=O)NC[C@@H]1C(=O)Nc1cc(-c2cc(F)cc(OCC(F)(F)F)c2)n(-c2cncnc2)n1 [Example 32] |  | 69
C[C@H]1C(=O)NC[C@@H]1C(=O)Nc1cc(-c2cc(F)cc(OCC(F)(F)F)c2)n(-c2ccc(C(F)(F)F)nc2)n1 [Example 33] |  | 5.9
C[C@H]1C(=O)NC[C@@H]1C(=O)Nc1cc(-c2cc(F)cc(OCC(F)(F)F)c2)n(-c2cncc(F)c2)n1 [Example 34] |  | 9.8
C[C@H]1C(=O)NC[C@@H]1C(=O)Nc1cc(-c2cc(F)cc(OCC(F)(F)F)c2)n(-c2cncc(Cl)c2)n1 [Example 35] |  | 4.6
COc1ncc(-n2nc(NC(=O)[C@H]3CNC(=O)[C@@H]3C)cc2-c2cc(F)cc(OC(C)(C)C(F)(F)F)c2)cn1 [Example 36] |  | 1.9
C[C@H]1C(=O)NC[C@@H]1C(=O)Nc1cc(-c2cc(F)cc(OC(C)(C)C(F)(F)F)c2)n(-c2cnc(N(C)C)nc2)n1 [Example 37] |  | 0.98
Cc1ncc(-n2nc(NC(=O)[C@H]3CNC(=O)[C@@H]3C)cc2-c2cc(F)cc(OC(C)(C)C(F)(F)F)c2)cn1 [Example 38] |  | 4
